Assays:
[1] = tested on: peripheral neuropathies caused by diabetes; conditions: 500 mg twice a day for two weeks; cited from earlier work
[2] = Stability trial, 5 days at 53° C., degradation evaluated by HPCEC-UV; type: physicochemical
Method: The evaluation of the degradation was carried out by HPCEC-UV analysis using 0.5M (pH 4) ammonium formiate as an eluent, a flow of 1.2 ml/min, and a Supelcosil LC-SCX column (25 cm, 4.6 mm, 5 micron). The product thus obtained was subjected to stability trials according to a procedure similar to the one adopted for the Comparative Example above. […] Also in this case, the evaluation of the degradation was carried out by HPCEC-UV analysis using 0.5M ammonium formiate (pH 4) as an eluent, a flow of 1.2 ml/min, and a Supelcosil LC-SCX column (25 cm, 4.6 mm, 5 μm).

In the case of `O[C@H]1[C@H](O)[C@@H](O)[C@H](O)[C@@H](O)[C@H]1O` [inositol], the therapeutic result [1] is listed as “considerable results”.
In the case of “SAMe salt with phytic acid [SAMe phytate complex]”, the SAMe ion ([2]; Lot 1, after 5 days at 53° C.) is reported as 23.2 % p/p, the “% Variation of SAMe ion” value ([2]; Lot 1, after 5 days at 53° C. vs initial) is reported as −7.9% and the SAMe ion ([2]; Lot 1, immediately after preparation) is reported as 25.2 % p/p. For the same molecule, the SAMe ion ([2]; Lot 2, after 5 days at 53° C.) was 23.3 % p/p, the “% Variation of SAMe ion” value ([2]; Lot 2, after 5 days at 53° C. vs initial) was −7.2% and the SAMe ion ([2]; Lot 2, immediately after preparation) was 25.1 % p/p. For the same molecule, the SAMe ion ([2]; Lot 3, after 5 days at 53° C.) was 23.2 % p/p, the “% Variation of SAMe ion” value ([2]; Lot 3, after 5 days at 53° C. vs initial) was −8.3% and the SAMe ion ([2]; Lot 3, immediately after preparation) was 25.3 % p/p. For the same molecule, the SAMe ion ([2]; Mean of 3 lots, after 5 days at 53° C.) was 23.2 % p/p, the “% Variation of SAMe ion” value ([2]; Mean of 3 lots, after 5 days at 53° C. vs initial) was −7.8% and the SAMe ion ([2]; Mean of 3 lots, immediately after preparation) was 25.2 % p/p.
In the case of SAMe Phytate Salt [Example 1], the stability ([2]; 5 days at 53° C.) is reported as “very stable”.

Reference: patent US20090175914A1, “Salts or Complexes of Methyl Donors With Phytic Acid or Its Derivatives and Method for the Synthesis Thereof” (priority 2005, published 2009)
